The supplement of paper PMC10307832

Experiments:
Experiment in all cases: relative viability (nuclei count vs DMSO), 5 days (fraction); higher = more cells survive
[1] = compound: COc1cc(Nc2ncc3c(n2)-c2ccc(Cl)cc2C(c2c(F)cccc2OC)=NC3)ccc1C(=O)O [Alisertib] + CC(C)C[C@H](NC(=O)[C@H](Cc1ccccc1)NC(=O)c1cnccn1)B(O)O [Bortezomib] (partner 0.002 µM)
Outline: (§1)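 A single step with final 0.05% Triton X-100, 1% formaldehyde and 1 ug/ml Hoechst fixed the cells and stained nuclei 5 days after treatment. Lung cancer cell lines in 1536-well plates had been treated by pin tool the day after seeding with one drug alone or a fixed anchor-drug dose plus five library-drug doses (not always all listed) in √10 steps, and nuclei were counted on 4× images. Relative viability is the ratio of nuclei in treated wells to nuclei in vehicle wells, taken as the median of duplicate plates.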

[2] = compound: COc1cc(Nc2ncc3c(n2)-c2ccc(Cl)cc2C(c2c(F)cccc2OC)=NC3)ccc1C(=O)O [Alisertib] + Nc1nc2[nH]cc(CCc3ccc(C(=O)N[C@@H](CCC(=O)O)C(=O)O)cc3)c2c(=O)[nH]1 [Pemetrexed] (partner 0.2 µM)
Outline: as §1

[3] = compound: COc1cc(Nc2ncc3c(n2)-c2ccc(Cl)cc2C(c2c(F)cccc2OC)=NC3)ccc1C(=O)O [Alisertib] + O=C(c1cc(Cc2n[nH]c(=O)c3ccccc23)ccc1F)N1CCN(C(=O)C2CC2)CC1 [Olaparib] (partner 8 µM)
Outline: as §1

[4] = compound: COc1cc(Nc2ncc3c(n2)-c2ccc(Cl)cc2C(c2c(F)cccc2OC)=NC3)ccc1C(=O)O [Alisertib] + Cc1nc(NC(=O)N2CCC[C@H]2C(N)=O)sc1-c1ccnc(C(C)(C)C(F)(F)F)c1 [Alpelisib] (partner 2 µM)
Outline: as §1

Cell Line	relative viability ([1]; first compound 0.005 µM)	relative viability ([1]; first compound 0.01581 µM)	relative viability ([1]; first compound 0.05 µM)	relative viability ([1]; first compound 0.1581 µM)	relative viability ([1]; first compound 0.5 µM)	relative viability ([2]; first compound 0.005 µM)	relative viability ([2]; first compound 0.01581 µM)	relative viability ([2]; first compound 0.05 µM)	relative viability ([2]; first compound 0.1581 µM)	relative viability ([2]; first compound 0.5 µM)	relative viability ([3]; first compound 0.005 µM)	relative viability ([3]; first compound 0.01581 µM)	relative viability ([3]; first compound 0.05 µM)	relative viability ([3]; first compound 0.1581 µM)	relative viability ([3]; first compound 0.5 µM)	relative viability ([4]; first compound 0.005 µM)	relative viability ([4]; first compound 0.01581 µM)	relative viability ([4]; first compound 0.05 µM)	relative viability ([4]; first compound 0.1581 µM)	relative viability ([4]; first compound 0.5 µM)
201T	1.05	1.07	1.08	1.07	0.694	0.314	0.299	0.358	0.335	0.274	0.823	0.803	0.711	0.361	0.33	0.985	0.997	0.964	0.783	0.378
A-427	0.89	0.818	0.751	0.149	0.15	0.818	0.5	0.266	0.265	0.251	0.65	0.563	0.204	0.177	0.227	1.03	0.922	0.173	0.165	0.14
BEN	0.691	0.867	0.398	0.229	0.2	0.629	0.784	0.335	0.358	0.342	0.983	0.917	0.295	0.269	0.341	1.05	0.923	0.37	0.232	0.218
CAL-12T	0.768	0.489	0.296	0.221	0.201	1.14	1.15	0.242	0.235	0.176	0.66	0.534	0.194	0.159	0.195	1.19	0.382	0.217	0.249	0.183
COR-L23	0.895	0.789	0.647	0.137	0.131	0.197	0.196	0.189	0.179	0.134	0.304	0.298	0.183	0.137	0.101	0.777	0.697	0.369	0.155	0.0816
COR-L 105	0.757	0.875	0.447	0.27	0.218	1.08	0.995	0.952	0.607	0.298	0.689	0.641	0.502	0.498	0.311	0.741	0.849	0.71	0.343	0.245
EKVX	0.967	0.8	0.391	0.185	0.169	0.364	0.377	0.266	0.172	0.187	0.848	0.674	0.282	0.207	0.203	0.819	0.811	0.49	0.215	0.185
EMC-BAC-2	0.91	0.947	0.579	0.229	0.243	0.445	0.429	0.447	0.405	0.3	0.452	0.356	0.291	0.294	0.214	0.701	0.567	0.296	0.259	0.143
EPLC-272H	0.794	0.856	0.79	0.135	0.13	0.284	0.245	0.172	0.138	0.118	0.671	0.471	0.293	0.0899	0.116	0.858	0.838	0.486	0.266	0.133
H3255	0.664	0.733	0.46	0.216	0.195	0.516	0.572	0.457	0.309	0.255	0.547	0.566	0.385	0.292	0.24	0.797	0.687	0.463	0.252	0.199
HARA	1.06	1.11	0.651	0.191	0.108	0.262	0.211	0.26	0.21	0.125	0.763	0.703	0.17	0.328	0.146	0.86	0.878	0.363	0.129	0.0864
HCC-15	0.941	0.901	0.48	0.164	0.118	0.234	0.212	0.187	0.143	0.135	0.689	0.444	0.191	0.165	0.145	0.875	0.662	0.229	0.148	0.106
HCC-44	0.95	0.827	0.664	0.28	0.15	0.566	0.601	0.545	0.45	0.394	0.944	0.856	0.501	0.508	0.391	0.759	0.716	0.458	0.17	0.0925
HCC-78	0.522	0.272	0.24	0.19	0.175	0.889	0.909	0.895	0.959	0.926	0.772	0.503	0.23	0.292	0.218	0.319	0.254	0.162	0.133	0.142
HCC-366	1.04	0.345	0.0201	0.0154	0.0255	0.169	0.131	0.0451	0.0421	0.0514	0.32	0.173	0.0172	0.0252	0.0457	0.337	0.46	0.0611	0.0117	0.0152
HCC-827	1.01	1.06	0.848	0.402	0.401	0.277	0.264	0.25	0.232	0.173	0.639	0.654	0.201	0.293	0.257	1.05	0.913	0.321	0.282	0.232

Cell Line	relative viability ([1]; first compound 0.005 µM)	relative viability ([1]; first compound 0.01581 µM)	relative viability ([1]; first compound 0.05 µM)	relative viability ([1]; first compound 0.1581 µM)	relative viability ([1]; first compound 0.5 µM)	relative viability ([2]; first compound 0.005 µM)	relative viability ([2]; first compound 0.01581 µM)	relative viability ([2]; first compound 0.05 µM)	relative viability ([2]; first compound 0.1581 µM)	relative viability ([2]; first compound 0.5 µM)	relative viability ([3]; first compound 0.005 µM)	relative viability ([3]; first compound 0.01581 µM)	relative viability ([3]; first compound 0.05 µM)	relative viability ([3]; first compound 0.1581 µM)	relative viability ([3]; first compound 0.5 µM)	relative viability ([4]; first compound 0.005 µM)	relative viability ([4]; first compound 0.01581 µM)	relative viability ([4]; first compound 0.05 µM)	relative viability ([4]; first compound 0.1581 µM)	relative viability ([4]; first compound 0.5 µM)
HOP-62	0.459	0.703	0.82	0.195	0.117	0.282	0.283	0.204	0.171	0.112	0.361	0.328	0.134	0.132	0.0731	0.926	0.976	0.345	0.198	0.133
LC-2-ad	0.907	0.369	0.264	0.144	0.112	0.263	0.228	0.215	0.177	0.175	0.642	0.523	0.211	0.245	0.192	0.766	0.631	0.209	0.138	0.0966
LCLC-97TM1	0.51	0.725	0.108	0.0791	0.0549	0.162	0.173	0.186	0.118	0.0781	0.332	0.306	0.102	0.0999	0.0824	0.23	0.203	0.15	0.138	0.112
LCLC-103H	1.19	1.01	1.09	0.262	0.3	0.497	0.511	0.417	0.399	0.347	0.598	0.709	0.356	0.357	0.353	0.849	1.03	0.313	0.335	0.333
LOU-NH91	0.509	0.427	0.388	0.364	0.405	0.428	0.385	0.369	0.349	0.354	0.89	0.871	0.63	0.464	0.399	0.728	0.762	0.635	0.442	0.409
LU99A	1.15	0.872	0.396	0.24	0.182	0.205	0.193	0.185	0.161	0.145	0.253	0.223	0.189	0.151	0.133	0.493	0.455	0.181	0.163	0.154
LXF-289	0.823	0.608	0.323	0.108	0.128	0.794	0.61	0.376	0.169	0.174	0.757	0.593	0.113	0.101	0.131	0.909	0.592	0.215	0.133	0.0979
NCI-H23	0.875	0.39	0.272	0.158	0.164	0.489	0.346	0.271	0.213	0.212	0.287	0.167	0.146	0.141	0.155	0.819	0.462	0.228	0.173	0.157
NCI-H322M	1.15	1.11	1.25	0.471	0.46	0.588	0.628	0.561	0.4	0.427	0.77	0.686	0.565	0.459	0.488	0.64	0.794	0.857	0.476	0.303
NCI-H441	0.715	0.394	0.184	0.17	0.155	0.288	0.279	0.249	0.145	0.142	0.487	0.471	0.139	0.173	0.172	0.787	0.528	0.172	0.153	0.157
NCI-H460	1.07	0.9	0.428	0.0287	0.0157	0.0584	0.0653	0.0683	0.0474	0.0488	0.371	0.387	0.0754	0.0677	0.0562	0.456	0.451	0.149	0.0179	0.0099
NCI-H520	0.463	0.377	0.199	0.173	0.186	0.653	0.491	0.346	0.273	0.253	0.317	0.244	0.217	0.18	0.249	0.966	0.766	0.429	0.323	0.273
NCI-H596	–	0.862	1.83	0.854	0.43	0.504	0.506	0.473	0.447	0.38	0.779	0.773	0.627	0.522	0.254	–	0.478	0.481	0.351	0.172
NCI-H647	0.598	0.572	0.305	0.133	0.086	0.155	0.178	0.122	0.0903	0.0745	0.367	0.278	0.086	0.0609	0.0531	1.05	0.691	0.341	0.148	0.0808
NCI-H650	0.568	0.619	0.25	0.265	0.22	0.739	0.825	0.35	0.262	0.2	0.366	0.299	0.171	0.164	0.154	1.15	0.947	0.513	0.237	0.205
NCI-H661	0.845	0.557	0.521	0.304	0.297	0.868	0.858	0.636	0.46	0.324	0.735	0.562	0.397	0.355	0.357	0.579	0.669	0.552	0.31	0.235
